Source: paper doi:10.64898/2025.12.15.694265, “Small molecule inhibitor of PPARγ acetylation promotes insulin sensitization and browning of white adipose tissue with improved safety” (bioRxiv, 2025)

What was measured:
PPARγ [1] = target: T1, PPARγ (Homo sapiens, UniProt P37231); experiment: 3xPPRE luciferase reporter in HEK293 cells, antagonism of Rosi activation; assay type: cell-based
T1 construct: gene PPARG; human PPARγ2 expressed in HEK-293 cells
T1 sequence (P37231 1-505): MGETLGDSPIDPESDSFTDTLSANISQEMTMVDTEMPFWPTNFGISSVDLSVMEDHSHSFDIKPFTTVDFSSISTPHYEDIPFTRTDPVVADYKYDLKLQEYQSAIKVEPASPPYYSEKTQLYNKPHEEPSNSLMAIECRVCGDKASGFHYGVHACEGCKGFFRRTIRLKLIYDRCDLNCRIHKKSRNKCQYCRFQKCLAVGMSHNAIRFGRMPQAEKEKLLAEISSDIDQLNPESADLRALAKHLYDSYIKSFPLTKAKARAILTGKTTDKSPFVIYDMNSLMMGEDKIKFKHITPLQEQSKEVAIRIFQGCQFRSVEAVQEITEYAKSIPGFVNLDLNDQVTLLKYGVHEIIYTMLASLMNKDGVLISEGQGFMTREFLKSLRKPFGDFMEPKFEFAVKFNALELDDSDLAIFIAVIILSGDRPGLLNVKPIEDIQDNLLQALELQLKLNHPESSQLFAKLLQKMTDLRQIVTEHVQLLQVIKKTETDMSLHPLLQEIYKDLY

PPARγ [2] = target: T2, PPARγ (Homo sapiens, UniProt P37231); experiment: X-ray co-crystal structure at […] Å; fluorescence polarization competition binding with GST-tagged LBD
T2 construct: gene PPARG
T2 sequence (P37231 223-505): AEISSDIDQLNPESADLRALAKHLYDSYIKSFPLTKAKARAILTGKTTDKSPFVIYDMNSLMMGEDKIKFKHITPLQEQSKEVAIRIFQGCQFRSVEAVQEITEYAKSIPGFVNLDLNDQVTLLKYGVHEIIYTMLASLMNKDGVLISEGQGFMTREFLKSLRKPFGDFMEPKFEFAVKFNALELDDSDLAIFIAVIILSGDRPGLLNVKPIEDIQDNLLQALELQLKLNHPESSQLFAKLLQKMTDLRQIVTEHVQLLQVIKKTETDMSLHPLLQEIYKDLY

Row | IC50 (PPARγ [2]) | SMILES | 3xPPRE luciferase reporter in HEK293 cells, antagonism of Rosi activation (PPARγ [1])
1 | – | O=C(Nc1ccccc1)c1cc([N+](=O)[O-])ccc1Cl [GW, GW9662] | GW9662 significantly diminished the activation of 3xPPRE reporter by Rosi
2 | ~5 µM | N#Cc1c(C2CCCCC2)nc(Sc2ccc(C(F)(F)F)cc2[N+](=O)[O-])[nH]c1=O [TPMD, 4-cyclohexyl-2-((2-nitro-4-(trifluoromethyl)phenyl)thio)-6-oxo-1,6-dihydropyrimidine-5-carbonitrile] | –
